Data set [1] can be described thus: Release of vitamins during tea bag steeping process (UV spectrophotometry). It counts as physicochemical. As to conditions: for release rate: 4° C., pH 5; for release rate (total amount released): initial 2-minute brewing period, water of pH 5, 4° C., tea bag, spray-dried powder of Example 1.
Description: To evaluate the release of encapsulated vitamins from the spray-dried powder into water, 30 mg spray-dried powders was placed in the tea bag, which was then immersed in a beaker containing 30 mL of deionized water (pH 5). The beaker was placed in a shaker and shaken slowly in a water bath at 4° C. or 100° C. At appropriate brewing time intervals, an aliquot of solution (0.5 mL) was removed with a pipette for measuring the released vitamins. To determine the amount of water-soluble vitamins, the pH of solution was adjusted to pH 1, followed by filtration (filter pore size 50 μm). […] The release rate was determined by the following equation: release rate (%)=(released vitamins/initially added vitamins)×100.
At appropriate steeping time intervals, an aliquot of solution (0.5 mL) was removed with a pipette for measuring the released vitamins. To determine the amount of water-soluble vitamins, the pH of solution was adjusted to pH 1, followed by filtration (filter pore size 50 μm). The filtrate was then collected and quantified using a UV-spectrophotometer for absorbance. A blank was prepared using deionized water at pH of 1 (adjusted by HCl).
The absorbance of Vitamin B6 was measured at a wavelength of 291 nm. The absorbance of Vitamin B12 was measured at a wavelength of 361 nm.
At appropriate steeping time intervals, an aliquot of solution (0.5 mL) was removed with a pipette for measuring the released vitamins. To determine the amount of oil-soluble vitamins, the pH of the solution was adjusted to a pH of 1, followed by filtration (filter pore size 50 μm). Then, 3 mL organic solvent (chloroform+methanol, 1:1, v/v) was added into the solution to extract the oil-soluble vitamins. After centrifugation at 1000 g for 5 min, the layer of chloroform was removed and quantified using the UV-spectrophotometer for absorbance. A blank was prepared using chloroform.
Using a UV-spectrophotometer, the absorbance of Vitamin A was measured at a wavelength of 326 nm. The absorbance of Vitamin E was measured at a wavelength of 295 nm.
A short description of data set [2]: Surface charge (zeta potential) at pH 5. It counts as physicochemical. As for the experimental part:
A facile, green, and powerful strategy was explored to engineer a robust O/W emulsion for co-delivery of water-soluble vitamins (VC, VB6, VB12) and oil-soluble vitamins (VA, VE). The preparation involved the complexation of chitosan and water-soluble vitamins and subsequent formation of chitosan-stabilized O/W emulsions. The approach is illustrated in FIG. 1A. First, the chitosan-vitamin complexes were prepared by mixing solutions of chitosan, anthocyanins, and water-soluble vitamins in deionized water at pH 5. […] The resulting chitosan-vitamin complexes were mixed with canola oil containing oil-soluble vitamins. After homogenization by ultrasonication, the chitosan-stabilized emulsions can form as optically opaque homogenous suspensions. In the ultrasonication process, the chitosan-vitamin complexes tended to coat on the surface of oil droplets, providing a physical layer for stabilization of oil-soluble vitamins. […] The value of the zeta potential (mV) indicates the degree of electrostatic repulsion and is the indicator/predictor of the stability of the dispersed particles. The absolute value difference of positive and negative electrostatic charges, measured in mV, between vitamins and chitosan is not the only factor that keeps the vitamins on the interface.

`CCCCCCCCCCCCCCCC(=O)OC/C=C(C)/C=C/C=C(C)/C=C/C1=C(C)CCCC1(C)C` [VA, retinol palmitate] displayed a release rate in data set [1] (at 5 min) of 84.0%. The charge entry in data set [2] is recorded as “negatively charged”.

In the case of `O=C1O[C@H]([C@@H](O)CO)C(O)=C1O` [VC, Vitamin C], the “release rate (total amount released)” value in data set [1] is 96.5%. The charge entry in data set [2] is reported as “negatively charged”.

Regarding Vitamin B6 [VB6], in data set [1], the “release rate (total amount released)” value turned out to be 98.8%. Moreover, the charge result in data set [2] is given as “negatively charged”.

With Vitamin B12 [VB12], in data set [1], the “release rate (total amount released)” value was determined as 100%. Besides, the charge result in data set [2] is given as “slightly positively charged”.

For anthocyanin [anthocyanins], in data set [2], the charge result is “negatively charged”.

Consider tocopherols, mixed, FG [VE], for which the release rate in data set [1] (at 10 min) is given as 80.4%.

For the origin of these results see patent publication US20240009123A1, “MULTI-SUPPLEMENT DELIVERY SYSTEM” (priority 2022, published 2024).
